{
  "source": "patent US9539256B2",
  "about": "(THE BOARD OF REGENTS OF THE UNIVERSITY OF TEXAS SYSTEM, priority 2012, dated 2017)",
  "key": {"[1]": {"tested_on": "type I PKA holoenzyme", "experiment": "PKA counter screening, type I holoenzyme", "format": "biochemical", "conditions": "25 μM compound", "method": "(§1) Kinase activity of the type I and II PKA holoenzyme are measured spectrophotometrically in a 96-well plate with a coupled enzyme assay as described previously (Cook et al. (1982) Biochemistry 21: 5794-5799). In this assay, the formation of ADP is coupled to the oxidation of NADH by the pyruvate kinase/lactate dehydrogenase reactions so the reaction rate can be determined by following the oxidation of NADH, reflected by a decrease in absorbance at 340 nm. […] Reactions are pre-equilibrated at room temperature and initiated by adding the Kemptide substrate (final concentration 0.26 mM)."}, "[2]": {"tested_on": "type II PKA holoenzyme", "experiment": "PKA counter screening, type II holoenzyme", "format": "biochemical", "conditions": "25 μM compound", "method": "as §1"}, "[3]": {"molecular_target": "T1, EPAC2 (Homo sapiens, UniProt Q8WZA2)", "T1 construct": "HEK293 cells that ectopically express full-length EPAC2 proteins; expressed in transfected cells; host or cells: HEK293", "T1 sequence (Q8WZA2 whole entry, species assumed)": "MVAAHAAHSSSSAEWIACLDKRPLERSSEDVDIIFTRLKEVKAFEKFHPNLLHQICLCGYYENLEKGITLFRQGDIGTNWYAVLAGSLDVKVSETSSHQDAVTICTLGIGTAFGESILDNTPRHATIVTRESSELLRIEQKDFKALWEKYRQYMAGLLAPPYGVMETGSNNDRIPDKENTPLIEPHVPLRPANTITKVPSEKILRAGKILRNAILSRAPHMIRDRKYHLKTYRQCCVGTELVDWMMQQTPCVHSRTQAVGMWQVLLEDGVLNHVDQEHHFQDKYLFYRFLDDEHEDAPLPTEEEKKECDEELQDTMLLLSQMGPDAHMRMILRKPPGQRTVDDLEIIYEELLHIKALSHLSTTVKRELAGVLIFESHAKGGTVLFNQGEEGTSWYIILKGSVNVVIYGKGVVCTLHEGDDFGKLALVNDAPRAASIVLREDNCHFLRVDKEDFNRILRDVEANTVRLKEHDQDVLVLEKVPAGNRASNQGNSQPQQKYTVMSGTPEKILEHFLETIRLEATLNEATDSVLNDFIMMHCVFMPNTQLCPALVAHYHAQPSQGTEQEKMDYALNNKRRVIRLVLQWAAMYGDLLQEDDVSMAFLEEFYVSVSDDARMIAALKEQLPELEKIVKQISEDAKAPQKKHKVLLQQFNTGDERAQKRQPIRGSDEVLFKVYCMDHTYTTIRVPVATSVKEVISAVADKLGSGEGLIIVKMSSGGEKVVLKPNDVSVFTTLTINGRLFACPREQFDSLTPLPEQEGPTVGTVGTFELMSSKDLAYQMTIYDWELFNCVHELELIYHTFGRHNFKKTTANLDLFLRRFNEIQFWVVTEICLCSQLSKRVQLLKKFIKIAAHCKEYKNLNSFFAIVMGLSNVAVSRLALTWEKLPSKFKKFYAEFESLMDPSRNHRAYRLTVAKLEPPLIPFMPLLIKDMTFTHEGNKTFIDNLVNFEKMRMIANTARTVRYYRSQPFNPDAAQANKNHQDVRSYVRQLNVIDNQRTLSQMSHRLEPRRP", "experiment": "Rap1 activation assay in HEK293/EPAC2 cells", "format": "cell-based", "conditions": "for 007-AM induced Rap1 activation: HEK293/EPAC2 cells, pre-treatment with 10 μM compound", "method": "(§2) FIGS. 9A-9B. Effects of EPAC2-specific antagonists on 007-AM-mediated cellular activation of Rap1. […] GTP-bound Rap1 (Rap1GTP) obtained by a Ral-GDSRBD-GST pull-down assay and total cellular Rap1 were detected by immunoblotting with Rap1-specific antibody. […] At test was used to determine statistical significance (*P<0.05).\n(§3) Cellular activation of Rap1 was determined by pull-down of lysates derived from human vascular smooth muscle cell and HEK293 cells stably expressing EPAC1 or EPAC2 employing Ral-GDS-RBD-GST affinity beads as described earlier (Mei and Cheng (2005) Molecular Biosystems 1: 325-331)."}, "[4]": {"molecular_target": "T2, EPAC1 (Homo sapiens, UniProt O95398)", "T2 sequence (O95398 1-923)": "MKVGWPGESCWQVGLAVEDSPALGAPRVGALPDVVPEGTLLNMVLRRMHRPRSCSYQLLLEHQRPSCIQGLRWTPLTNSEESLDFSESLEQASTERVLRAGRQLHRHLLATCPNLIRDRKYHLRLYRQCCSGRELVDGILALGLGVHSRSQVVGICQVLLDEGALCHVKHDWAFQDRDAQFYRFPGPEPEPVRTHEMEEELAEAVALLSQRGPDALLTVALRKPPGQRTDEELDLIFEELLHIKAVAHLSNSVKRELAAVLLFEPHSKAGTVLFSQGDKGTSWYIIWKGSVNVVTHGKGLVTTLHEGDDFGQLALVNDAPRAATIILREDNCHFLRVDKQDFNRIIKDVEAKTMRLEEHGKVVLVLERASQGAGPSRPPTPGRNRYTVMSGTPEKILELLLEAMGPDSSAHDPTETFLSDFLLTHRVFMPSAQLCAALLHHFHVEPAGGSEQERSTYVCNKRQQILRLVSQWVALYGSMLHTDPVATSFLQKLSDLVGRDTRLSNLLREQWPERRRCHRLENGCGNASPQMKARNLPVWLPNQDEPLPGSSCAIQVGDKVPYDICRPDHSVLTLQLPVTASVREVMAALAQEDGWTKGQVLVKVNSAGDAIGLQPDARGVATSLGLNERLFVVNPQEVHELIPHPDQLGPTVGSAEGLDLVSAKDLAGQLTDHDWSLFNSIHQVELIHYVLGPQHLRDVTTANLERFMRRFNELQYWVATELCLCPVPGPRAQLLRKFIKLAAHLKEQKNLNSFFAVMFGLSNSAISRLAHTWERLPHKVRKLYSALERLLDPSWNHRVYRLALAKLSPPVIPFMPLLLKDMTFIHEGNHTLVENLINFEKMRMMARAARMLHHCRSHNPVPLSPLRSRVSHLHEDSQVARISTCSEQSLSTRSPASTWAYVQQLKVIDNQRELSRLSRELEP", "experiment": "Rap1 activation assay in HEK293/EPAC1 cells", "format": "cell-based", "method": "as §2, §3"}, "[5]": {"molecular_target": "T2, EPAC1", "experiment": "Rap1-GDP exchange (GEF) activity assay, EPAC1"}, "[6]": {"molecular_target": "T2, EPAC1", "experiment": "Phosphorylation of Akt in HEK293/EPAC1 cells", "format": "cell-based", "conditions": "stimulation with 007-AM", "method": "(§4) FIG. 10. Effect of ESI-09 on EPAC-mediated PKB phosphorylation in HEK293/EPAC1, HEK293/EPAC2, and human vascular smooth muscle (hVSMC) cells. Serum-starved HEK293/EPAC1, HEK293/EPAC2, and hVSMC cells with or without pretreatment of […] ESI-09 were stimulated with 10 μM 007-AM. Cell lysates were subjected to Western blot analysis as described under “Experimental Procedures” using anti-phospho-Ser473-specific (PKB-P473) and anti-phospho-Thr308-specific (PKB-P308) PKB antibodies.\n(§5) Cellular proteins from cell lysates treated with various reagents were separated by SDS-PAGE and transferred to polyvinylidene difluoride membrane. The levels of Akt activation were probed by immuno-blotting analyses using anti-phosphate T308 PKB antibodies (1:1000) and anti-phosphate S473 PKB antibodies (1:1000). At least three independent experiments were performed for each Western blot."}, "[7]": {"molecular_target": "T1, EPAC2", "experiment": "Phosphorylation of Akt in HEK293/EPAC2 cells", "format": "cell-based", "conditions": "stimulation with 007-AM", "method": "as §4, §5"}, "[8]": {"tested_on": "AsPC-1 and PANC-1 cells", "experiment": "Cell adhesion assay on collagen I matrix", "format": "cell-based", "conditions": "stimulation with 10 μM 007-AM", "method": "FIG. 13 ESI-09 inhibits EPAC1-mediated adhesion of PDA cells on collagen I. AsPC-1 and PANC-1 cells were stimulated with vehicle or 10 μM 007-AM after treatment with the indicated concentrations of ESI-09 for 5 minutes. Bars represent mean±s.d.\nIt has been recently reported that EPAC1 is over-expressed in pancreatic adenocarcinoma (Lorenz et al. (2008) Pancreas 37: 102-103). However, the functional role of EPAC1 elevation in this neoplasm is not clear. The inventors sought to employ ESI-09 to determine the role of EPAC1 signaling in pancreatic cancer. […] In order to determine if the observed impact on cell migration is EPAC1 specific, the effect of suppressing EPAC1 expression on AsPC-1 and PANC-1 migration using RNAi was examined. […] To further determine how ESI-09 inhibits PDA cell migration and invasion, a cell adhesion assay was performed using a collagen I matrix. […] To determine the in vivo anti-metastatic effect of ESI-09, MIA PaCa-2 stably expressing luciferase were orthotopically implanted into the pancreas of athymic nude mice. The mice were randomly divided into two groups and treated with vehicle or ESI-09 (50 mg/kg per day, oral gavage), respectively. The growth and metastasis of the tumors were monitored by weekly bioluminescence imaging using the IVIS bioluminescence imaging system."}, "[9]": {"molecular_target": "T3, EPAC2 (Mus musculus, UniProt Q9EQZ6)", "T3 sequence (Q9EQZ6 1-1011)": "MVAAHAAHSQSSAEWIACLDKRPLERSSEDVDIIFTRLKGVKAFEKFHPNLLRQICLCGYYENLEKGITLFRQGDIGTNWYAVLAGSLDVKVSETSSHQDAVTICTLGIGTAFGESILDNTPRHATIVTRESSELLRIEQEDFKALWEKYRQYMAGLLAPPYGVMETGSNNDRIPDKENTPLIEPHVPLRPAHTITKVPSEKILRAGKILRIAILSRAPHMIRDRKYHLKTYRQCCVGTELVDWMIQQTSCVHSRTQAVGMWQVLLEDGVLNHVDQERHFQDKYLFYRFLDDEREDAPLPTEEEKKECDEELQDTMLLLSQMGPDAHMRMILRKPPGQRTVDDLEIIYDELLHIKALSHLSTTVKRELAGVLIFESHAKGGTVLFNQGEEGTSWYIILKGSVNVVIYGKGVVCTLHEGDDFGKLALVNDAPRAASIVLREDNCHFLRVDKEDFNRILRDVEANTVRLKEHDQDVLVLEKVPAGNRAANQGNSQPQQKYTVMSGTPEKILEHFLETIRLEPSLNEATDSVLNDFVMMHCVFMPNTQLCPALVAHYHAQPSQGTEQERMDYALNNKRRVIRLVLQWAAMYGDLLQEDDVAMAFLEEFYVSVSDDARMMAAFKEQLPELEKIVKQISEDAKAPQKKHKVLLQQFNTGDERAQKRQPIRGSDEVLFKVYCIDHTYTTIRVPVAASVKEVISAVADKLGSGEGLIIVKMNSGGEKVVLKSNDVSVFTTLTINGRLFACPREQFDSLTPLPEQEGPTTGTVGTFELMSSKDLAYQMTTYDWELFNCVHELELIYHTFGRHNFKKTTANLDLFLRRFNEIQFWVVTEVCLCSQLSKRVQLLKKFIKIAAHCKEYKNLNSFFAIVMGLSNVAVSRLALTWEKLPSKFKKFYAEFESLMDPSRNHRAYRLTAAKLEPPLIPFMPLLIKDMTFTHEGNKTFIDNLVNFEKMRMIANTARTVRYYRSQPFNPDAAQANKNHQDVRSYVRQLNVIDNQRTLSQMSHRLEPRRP", "experiment": "8-NBD-cAMP competition binding to EPAC2", "method": "Primary screen is performed in black 96-well or 384-well microplates. As an example, 50 nM EPAC2 solution is prepared in 20 mM Tris buffer, pH 7.5, containing 150 mM NaCl, 1 mM EDTA, and 1 mM […]. […] Sample is dispensed into plate and test compounds added from 96-well mother plates. […] Fluorescence intensity signal from 8-NBD was recorded at room temperature (rt) before and after tested compounds are added using SpectaMaxM2 microplate reader (Molecular Devices, Silicon Valley, Calif., USA) with excitation/emission wavelengths set at 470/540 nm."}},
  "data": [
    {"smiles": "Cc1ccc(S(=O)(=O)c2c(C)cc(C)cc2C)cc1", "note": "[ESI-05]", "values": [
      {"measurement": "cAMP-induced type I PKA holoenzyme activation", "setting": "[1]", "value": "did not significantly alter"},
      {"measurement": "cAMP-induced type II PKA holoenzyme activation", "setting": "[2]", "value": "did not significantly alter"},
      {"measurement": "007-AM induced Rap1 activation", "setting": "[3]", "value": "significant reduction"},
      {"measurement": "007-AM induced Rap1 activation", "setting": "[4]", "value": "ineffective"},
      {"measurement": "suppressing EPAC1 GEF activity", "setting": "[5]; cAMP-mediated Rap1-GDP exchange", "value": "completely ineffective"},
      {"measurement": "EPAC1 IC50", "setting": "[5]; suppressing EPAC1 GEF activity, 25 μM cAMP", "value": "NMA*"}
    ]},
    {"smiles": "CO[C@@H]1[C@@H]2OP(=O)(OCOC(C)=O)OC[C@H]2O[C@H]1n1c(Sc2ccc(Cl)cc2)nc2c(N)ncnc21", "note": "(stereo partly drawn) [Compound 007-AM, 8-(4-Chlorophenylthio)-2′-O-methyladenosine-3′,5′-cyclic monophosphate, acetoxymethyl ester, reference compound]", "values": [
      {"measurement": "fraction of GTP-bound cellular Rap1", "setting": "[3]; HEK293/EPAC2 cells treated with 007-AM", "value": "increase"},
      {"measurement": "Akt phosphorylation for both T308 and S473", "setting": "[6]", "value": "increase"},
      {"measurement": "Akt phosphorylation for both T308 and S473", "setting": "[7]", "value": "increase"},
      {"measurement": "cell adhesion", "setting": "[8]", "value": "increase"}
    ]},
    {"smiles": "Cc1ccc(C)c(CSc2nc(C3CCCCC3)c(C#N)c(=O)[nH]2)c1", "note": "[ESI-08]", "values": [
      {"measurement": "Relative Potency (RA)", "setting": "[9]; RA = IC50, cAMP/IC50, compound", "value": 4.5},
      {"measurement": "IC50", "setting": "[9]; competing with 8-NBD-cAMP in binding EPAC2, read-out: Apparent IC50", "value": "8.7 ± 1.1", "unit": "µM"},
      {"measurement": "007-AM induced Rap1 activation", "setting": "[3]", "value": "much less effective"}
    ]},
    {"smiles": "O=S(=O)(NCCNC/C=C/c1ccc(Br)cc1)c1cccc2cnccc12", "note": "[Compound H89, reference compound]", "values": [
      {"measurement": "cAMP-induced type I PKA holoenzyme activation", "setting": "[1]", "value": "blocked the type I or II PKA activities completely"},
      {"measurement": "cAMP-induced type II PKA holoenzyme activation", "setting": "[2]", "value": "blocked the type I or II PKA activities completely"}
    ]}
  ]
}
